# Tests used:
# [1] = molecular target: T1, Dual specificity mitogen-activated protein kinase kinase 4 (Homo sapiens) (UniProt P45985); test: Inhibition of human MAP2K4 in HL-60 cells lysate assessed as reduction of labeling of acyl-phosphate ATP probe at 100 nM; format: cell-free
# T1 sequence (whole entry): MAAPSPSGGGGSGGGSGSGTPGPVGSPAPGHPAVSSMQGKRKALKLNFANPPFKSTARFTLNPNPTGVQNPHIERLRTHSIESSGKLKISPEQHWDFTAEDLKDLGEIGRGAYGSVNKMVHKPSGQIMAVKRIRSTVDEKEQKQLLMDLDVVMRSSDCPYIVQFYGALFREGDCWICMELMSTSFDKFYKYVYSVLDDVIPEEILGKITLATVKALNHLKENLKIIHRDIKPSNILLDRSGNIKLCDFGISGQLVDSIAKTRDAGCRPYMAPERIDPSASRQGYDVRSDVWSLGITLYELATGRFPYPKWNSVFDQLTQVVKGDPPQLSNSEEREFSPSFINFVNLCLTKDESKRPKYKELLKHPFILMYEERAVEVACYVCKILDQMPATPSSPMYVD
# [2] = molecular target: Glycogen synthase kinase-3 alpha (Homo sapiens) (UniProt P49840); test: Inhibition of human GSK3alpha in HL-60 cells lysate assessed as reduction of labeling of acyl-phosphate ATP probe at 100 nM; format: cell-free
# HL-60 [3] = test: Inhibition of human TAO1/TAO3 in HL-60 cells lysate assessed as reduction of labeling of acyl-phosphate ATP probe at 100 nM
# [4] = molecular target: Serine/threonine-protein kinase Nek6 (Homo sapiens) (UniProt Q9HC98); test: Inhibition of human NEK6 in HL-60 cells lysate assessed as reduction of labeling of acyl-phosphate ATP probe at 100 nM; format: cell-free
# [5] = molecular target: T2, Serine/threonine-protein kinase 3 (Homo sapiens) (UniProt Q13188); test: Inhibition of human MST2 in HL-60 cells lysate assessed as reduction of labeling of acyl-phosphate ATP probe at 100 nM; format: cell-free
# T2 sequence (whole entry): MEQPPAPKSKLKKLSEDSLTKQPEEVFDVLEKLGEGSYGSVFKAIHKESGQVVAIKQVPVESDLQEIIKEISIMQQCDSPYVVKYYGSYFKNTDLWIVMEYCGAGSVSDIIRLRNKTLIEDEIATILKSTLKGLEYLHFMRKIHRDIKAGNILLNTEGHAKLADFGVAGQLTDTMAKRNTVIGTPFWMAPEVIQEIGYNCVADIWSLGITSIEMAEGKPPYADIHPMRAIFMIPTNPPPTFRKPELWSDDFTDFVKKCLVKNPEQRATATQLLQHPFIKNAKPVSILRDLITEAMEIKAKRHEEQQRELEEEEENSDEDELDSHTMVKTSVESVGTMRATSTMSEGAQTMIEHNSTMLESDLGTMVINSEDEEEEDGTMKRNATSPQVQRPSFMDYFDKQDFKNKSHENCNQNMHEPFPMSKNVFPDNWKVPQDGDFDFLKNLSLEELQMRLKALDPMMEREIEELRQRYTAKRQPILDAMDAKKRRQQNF
# [6] = molecular target: T3, Eukaryotic translation initiation factor 2-alpha kinase 3 (Homo sapiens) (UniProt Q9NZJ5); test: Inhibition of human PEK in HL-60 cells lysate assessed as reduction of labeling of acyl-phosphate ATP probe at 100 nM; format: cell-free
# T3 sequence (whole entry): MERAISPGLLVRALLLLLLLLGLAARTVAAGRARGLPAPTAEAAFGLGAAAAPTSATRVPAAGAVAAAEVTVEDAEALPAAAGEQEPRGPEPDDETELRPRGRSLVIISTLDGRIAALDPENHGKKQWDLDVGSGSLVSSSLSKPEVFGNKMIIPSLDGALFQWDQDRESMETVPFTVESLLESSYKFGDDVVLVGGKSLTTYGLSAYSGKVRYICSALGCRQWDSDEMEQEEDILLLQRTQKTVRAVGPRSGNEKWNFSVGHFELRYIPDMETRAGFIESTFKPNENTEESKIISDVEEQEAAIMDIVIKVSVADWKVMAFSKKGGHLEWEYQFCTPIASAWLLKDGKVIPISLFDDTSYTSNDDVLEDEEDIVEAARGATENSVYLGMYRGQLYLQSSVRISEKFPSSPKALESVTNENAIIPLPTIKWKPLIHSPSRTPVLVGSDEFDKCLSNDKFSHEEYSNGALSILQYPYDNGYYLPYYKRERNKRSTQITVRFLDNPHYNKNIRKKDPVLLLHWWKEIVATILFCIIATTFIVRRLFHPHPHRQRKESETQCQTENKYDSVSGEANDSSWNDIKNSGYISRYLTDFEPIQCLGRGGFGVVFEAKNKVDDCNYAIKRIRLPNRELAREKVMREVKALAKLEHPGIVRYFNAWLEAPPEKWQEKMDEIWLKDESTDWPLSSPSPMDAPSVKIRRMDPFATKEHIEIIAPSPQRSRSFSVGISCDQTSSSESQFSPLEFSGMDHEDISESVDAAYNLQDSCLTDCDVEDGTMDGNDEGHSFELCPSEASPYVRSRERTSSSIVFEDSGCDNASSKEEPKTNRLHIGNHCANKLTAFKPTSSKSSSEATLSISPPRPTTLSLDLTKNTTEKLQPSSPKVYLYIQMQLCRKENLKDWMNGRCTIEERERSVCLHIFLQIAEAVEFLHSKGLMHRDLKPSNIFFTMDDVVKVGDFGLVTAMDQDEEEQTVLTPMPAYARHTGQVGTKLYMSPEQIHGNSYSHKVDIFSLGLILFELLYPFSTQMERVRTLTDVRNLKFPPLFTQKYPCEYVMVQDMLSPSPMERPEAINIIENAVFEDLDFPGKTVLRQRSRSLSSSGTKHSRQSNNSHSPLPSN
# [7] = molecular target: Interferon-induced, double-stranded RNA-activated protein kinase (Homo sapiens) (UniProt P19525); test: Inhibition of human PKR in HL-60 cells lysate assessed as reduction of labeling of acyl-phosphate ATP probe at 100 nM; format: cell-free
# [8] = molecular target: Dual specificity tyrosine-phosphorylation-regulated kinase 1B (Homo sapiens) (UniProt Q9Y463); test: Inhibition of human DYRK1B in HL-60 cells lysate assessed as reduction of labeling of acyl-phosphate ATP probe at 100 nM; format: cell-free
# [9] = molecular target: DNA-dependent protein kinase catalytic subunit (Homo sapiens) (UniProt P78527); test: Inhibition of human DNAPK in HL-60 cells lysate assessed as reduction of labeling of acyl-phosphate ATP probe at 100 nM; format: cell-free
# [10] = molecular target: Phosphatidylinositol 3-kinase catalytic subunit type 3 (Homo sapiens) (UniProt Q8NEB9); test: Inhibition of human PIK3C3 in HL-60 cells lysate assessed as reduction of labeling of acyl-phosphate ATP probe at 100 nM; format: cell-free
# HL-60 [11] = test: Inhibition of human PITSLRE in HL-60 cells lysate assessed as reduction of labeling of acyl-phosphate ATP probe at 100 nM
# [12] = molecular target: Calcium/calmodulin-dependent protein kinase kinase 2 (Homo sapiens) (UniProt Q96RR4); test: Inhibition of human CaMKK2 in HL-60 cells lysate assessed as reduction of labeling of acyl-phosphate ATP probe at 100 nM; format: cell-free
# Glycogen synthase kinase-3 alpha (Homo sapiens), sequence (P49840 2-483 limits assumed): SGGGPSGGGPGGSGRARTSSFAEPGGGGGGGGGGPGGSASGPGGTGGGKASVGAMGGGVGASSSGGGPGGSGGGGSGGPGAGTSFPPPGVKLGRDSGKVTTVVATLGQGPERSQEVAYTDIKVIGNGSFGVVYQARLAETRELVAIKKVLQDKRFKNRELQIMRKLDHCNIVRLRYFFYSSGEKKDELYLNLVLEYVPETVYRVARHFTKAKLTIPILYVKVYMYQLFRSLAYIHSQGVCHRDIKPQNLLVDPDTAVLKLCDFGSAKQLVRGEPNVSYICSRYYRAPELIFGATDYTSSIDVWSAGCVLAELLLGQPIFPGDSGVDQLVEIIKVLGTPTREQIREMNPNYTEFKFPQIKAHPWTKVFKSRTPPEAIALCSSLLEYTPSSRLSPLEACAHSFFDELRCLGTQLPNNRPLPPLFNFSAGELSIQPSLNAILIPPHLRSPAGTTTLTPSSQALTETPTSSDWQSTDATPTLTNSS
# DNA-dependent protein kinase catalytic subunit (Homo sapiens), sequence (P78527 whole entry): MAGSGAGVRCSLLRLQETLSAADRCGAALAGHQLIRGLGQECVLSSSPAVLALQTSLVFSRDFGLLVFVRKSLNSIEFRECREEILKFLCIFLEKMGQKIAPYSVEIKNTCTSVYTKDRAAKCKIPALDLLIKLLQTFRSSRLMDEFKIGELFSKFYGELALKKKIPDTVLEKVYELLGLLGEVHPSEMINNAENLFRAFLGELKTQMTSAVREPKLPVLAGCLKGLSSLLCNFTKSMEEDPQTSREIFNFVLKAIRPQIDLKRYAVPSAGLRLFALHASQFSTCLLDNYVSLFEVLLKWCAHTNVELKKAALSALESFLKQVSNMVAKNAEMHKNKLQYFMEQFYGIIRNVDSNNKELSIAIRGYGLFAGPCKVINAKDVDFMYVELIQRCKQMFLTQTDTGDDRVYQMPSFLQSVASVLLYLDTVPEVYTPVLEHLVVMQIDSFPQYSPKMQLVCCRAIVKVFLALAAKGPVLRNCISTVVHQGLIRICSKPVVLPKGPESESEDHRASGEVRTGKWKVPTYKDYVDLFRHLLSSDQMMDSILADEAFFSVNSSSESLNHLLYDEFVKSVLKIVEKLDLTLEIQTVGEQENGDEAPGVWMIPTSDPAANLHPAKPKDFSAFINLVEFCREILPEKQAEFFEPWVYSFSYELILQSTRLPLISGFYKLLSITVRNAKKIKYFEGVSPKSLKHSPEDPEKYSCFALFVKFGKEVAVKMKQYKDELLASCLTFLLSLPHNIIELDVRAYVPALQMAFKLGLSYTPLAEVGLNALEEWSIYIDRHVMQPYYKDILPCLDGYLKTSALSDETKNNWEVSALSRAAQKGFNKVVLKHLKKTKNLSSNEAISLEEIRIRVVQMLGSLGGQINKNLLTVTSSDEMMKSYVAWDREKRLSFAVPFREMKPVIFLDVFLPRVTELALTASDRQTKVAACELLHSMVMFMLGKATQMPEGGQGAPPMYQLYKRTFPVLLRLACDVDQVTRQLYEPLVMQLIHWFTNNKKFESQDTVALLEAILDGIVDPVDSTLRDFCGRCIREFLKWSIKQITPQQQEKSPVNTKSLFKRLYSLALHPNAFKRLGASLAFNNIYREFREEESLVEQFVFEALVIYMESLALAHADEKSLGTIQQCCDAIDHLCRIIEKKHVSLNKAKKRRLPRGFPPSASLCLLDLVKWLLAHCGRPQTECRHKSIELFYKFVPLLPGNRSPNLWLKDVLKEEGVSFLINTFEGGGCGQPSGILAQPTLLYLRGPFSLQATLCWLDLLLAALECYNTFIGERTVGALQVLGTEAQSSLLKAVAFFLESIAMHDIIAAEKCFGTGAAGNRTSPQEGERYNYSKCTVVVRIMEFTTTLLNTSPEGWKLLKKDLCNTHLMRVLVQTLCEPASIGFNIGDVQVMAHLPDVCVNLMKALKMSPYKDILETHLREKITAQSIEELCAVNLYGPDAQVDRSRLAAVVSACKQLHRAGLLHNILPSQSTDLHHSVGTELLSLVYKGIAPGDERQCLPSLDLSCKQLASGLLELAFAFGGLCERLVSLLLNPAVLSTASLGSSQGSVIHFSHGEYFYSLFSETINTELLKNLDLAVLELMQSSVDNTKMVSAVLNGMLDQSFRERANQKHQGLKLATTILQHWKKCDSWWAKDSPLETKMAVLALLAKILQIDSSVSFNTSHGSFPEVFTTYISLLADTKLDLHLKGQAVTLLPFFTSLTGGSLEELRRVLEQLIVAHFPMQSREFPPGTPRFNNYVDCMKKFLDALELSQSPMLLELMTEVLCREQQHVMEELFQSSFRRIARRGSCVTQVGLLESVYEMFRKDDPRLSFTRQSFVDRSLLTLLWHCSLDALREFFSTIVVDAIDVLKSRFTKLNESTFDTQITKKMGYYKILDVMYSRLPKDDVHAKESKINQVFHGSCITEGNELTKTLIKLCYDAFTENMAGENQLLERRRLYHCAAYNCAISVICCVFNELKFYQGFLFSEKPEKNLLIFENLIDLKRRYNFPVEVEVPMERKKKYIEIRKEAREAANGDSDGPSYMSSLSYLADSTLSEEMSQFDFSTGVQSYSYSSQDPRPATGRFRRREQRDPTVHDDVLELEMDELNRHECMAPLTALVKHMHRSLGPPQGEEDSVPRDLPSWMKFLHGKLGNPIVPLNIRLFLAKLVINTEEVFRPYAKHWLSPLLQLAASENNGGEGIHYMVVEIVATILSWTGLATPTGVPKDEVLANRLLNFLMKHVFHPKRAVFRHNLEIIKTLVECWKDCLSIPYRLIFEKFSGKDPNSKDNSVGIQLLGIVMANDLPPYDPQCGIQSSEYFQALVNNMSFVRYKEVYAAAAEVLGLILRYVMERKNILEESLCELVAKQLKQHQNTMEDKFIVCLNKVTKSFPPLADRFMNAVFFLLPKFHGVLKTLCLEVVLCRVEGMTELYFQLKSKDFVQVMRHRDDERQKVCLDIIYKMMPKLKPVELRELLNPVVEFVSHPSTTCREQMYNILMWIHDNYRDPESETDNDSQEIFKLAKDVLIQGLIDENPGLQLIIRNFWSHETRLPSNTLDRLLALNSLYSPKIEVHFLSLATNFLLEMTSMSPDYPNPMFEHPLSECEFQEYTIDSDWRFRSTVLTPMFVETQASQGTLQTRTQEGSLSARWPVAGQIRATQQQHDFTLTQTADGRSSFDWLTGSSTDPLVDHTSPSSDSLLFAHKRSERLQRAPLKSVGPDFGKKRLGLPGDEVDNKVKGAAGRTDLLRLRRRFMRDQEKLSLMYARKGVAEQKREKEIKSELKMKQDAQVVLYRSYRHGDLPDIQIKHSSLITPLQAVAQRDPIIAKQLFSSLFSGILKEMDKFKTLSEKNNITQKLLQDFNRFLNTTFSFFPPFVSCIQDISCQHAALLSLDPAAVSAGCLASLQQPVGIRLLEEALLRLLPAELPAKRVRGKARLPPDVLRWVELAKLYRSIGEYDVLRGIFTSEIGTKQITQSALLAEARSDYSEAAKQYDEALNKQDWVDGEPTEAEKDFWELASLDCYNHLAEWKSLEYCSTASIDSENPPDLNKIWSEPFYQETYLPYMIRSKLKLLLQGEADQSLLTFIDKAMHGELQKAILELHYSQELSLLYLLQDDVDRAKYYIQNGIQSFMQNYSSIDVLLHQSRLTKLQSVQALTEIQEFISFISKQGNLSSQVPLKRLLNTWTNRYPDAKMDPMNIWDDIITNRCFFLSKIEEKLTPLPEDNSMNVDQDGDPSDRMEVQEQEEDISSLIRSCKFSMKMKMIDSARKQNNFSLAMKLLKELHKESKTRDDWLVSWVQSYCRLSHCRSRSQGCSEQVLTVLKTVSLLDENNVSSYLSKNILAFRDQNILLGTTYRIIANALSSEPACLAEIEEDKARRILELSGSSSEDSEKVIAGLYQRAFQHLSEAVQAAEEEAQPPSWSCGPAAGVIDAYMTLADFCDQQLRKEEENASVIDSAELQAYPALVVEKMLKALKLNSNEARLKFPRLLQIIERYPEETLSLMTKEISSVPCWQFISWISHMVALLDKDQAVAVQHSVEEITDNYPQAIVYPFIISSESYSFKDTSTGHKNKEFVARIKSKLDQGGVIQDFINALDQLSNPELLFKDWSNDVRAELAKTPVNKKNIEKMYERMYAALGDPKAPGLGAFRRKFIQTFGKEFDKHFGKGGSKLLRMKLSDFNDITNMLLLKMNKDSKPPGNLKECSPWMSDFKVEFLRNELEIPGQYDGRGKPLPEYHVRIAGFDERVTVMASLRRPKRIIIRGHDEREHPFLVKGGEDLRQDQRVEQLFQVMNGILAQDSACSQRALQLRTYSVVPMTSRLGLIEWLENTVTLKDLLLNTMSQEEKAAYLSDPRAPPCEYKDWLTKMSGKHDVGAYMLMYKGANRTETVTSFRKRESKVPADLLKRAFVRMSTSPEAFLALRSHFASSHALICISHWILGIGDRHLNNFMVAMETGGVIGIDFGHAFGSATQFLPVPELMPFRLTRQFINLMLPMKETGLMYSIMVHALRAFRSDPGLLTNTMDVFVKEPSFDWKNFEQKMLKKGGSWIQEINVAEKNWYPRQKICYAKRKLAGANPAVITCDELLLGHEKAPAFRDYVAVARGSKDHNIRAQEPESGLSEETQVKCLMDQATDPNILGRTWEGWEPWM
# Interferon-induced, double-stranded RNA-activated protein kinase (Homo sapiens), sequence (P19525 whole entry): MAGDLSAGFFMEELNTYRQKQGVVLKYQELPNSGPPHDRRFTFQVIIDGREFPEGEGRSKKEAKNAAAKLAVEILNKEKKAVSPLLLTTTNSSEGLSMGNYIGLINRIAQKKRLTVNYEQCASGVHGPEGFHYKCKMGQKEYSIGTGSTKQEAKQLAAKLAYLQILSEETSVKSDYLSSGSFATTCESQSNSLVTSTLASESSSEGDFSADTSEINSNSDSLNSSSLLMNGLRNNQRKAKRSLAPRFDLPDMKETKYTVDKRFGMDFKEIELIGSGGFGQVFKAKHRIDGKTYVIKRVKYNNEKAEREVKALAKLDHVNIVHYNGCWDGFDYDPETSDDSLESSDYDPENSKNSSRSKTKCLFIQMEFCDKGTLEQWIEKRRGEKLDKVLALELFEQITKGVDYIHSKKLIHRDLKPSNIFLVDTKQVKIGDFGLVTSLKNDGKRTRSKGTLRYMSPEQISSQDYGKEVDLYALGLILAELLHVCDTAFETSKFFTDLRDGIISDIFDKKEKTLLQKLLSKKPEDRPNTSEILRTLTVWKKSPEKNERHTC
inhibition [1] [%],inhibition [2] [%],inhibition [4] [%],inhibition [5] [%],inhibition [6] [%],inhibition [7] [%],inhibition [8] [%],inhibition [9] [%],inhibition [10] [%],inhibition [12] [%],SMILES,inhibition at 0.1 µM (HL-60 [3]) [%],inhibition at 0.1 µM (HL-60 [11]) [%]
< 35,> 99.5,< 35,< 35,< 35,< 35,< 35,< 35,< 35,< 35,C[C@H]1COc2c(NCCCc3ccccn3)c(F)c(N)c3c(=O)c(C#N)cn1c23,< 35,< 35
< 35,95.2,< 35,< 35,< 35,< 35,< 35,< 35,< 35,< 35,C[C@H]1COc2c(NCCCn3cccn3)c(F)c(N)c3c(=O)c(C(=O)O)cn1c23,< 35,< 35
< 35,94.3,< 35,< 35,< 35,< 35,< 35,< 35,< 35,< 35,C[C@H]1COc2c(NCCCc3ccccn3)c(F)c(N)c3c(=O)c(C(=O)O)cn1c23,< 35,< 35
< 35,> 99.5,< 35,< 35,< 35,< 35,< 35,< 35,< 35,< 35,C[C@H]1COc2c(NCCCn3cccn3)c(F)c(N)c3c(=O)c(C#N)cn1c23,< 35,< 35
